Calls of active or inactive are those of the source. No cut-off for these calls is given here.
How the values were obtained:
[1] = target: T1, Protein mono-ADP-ribosyltransferase TIPARP (Homo sapiens) (UniProt Q7Z3E1); assay: Inhibition of PARP7 (unknown origin) at 100 nM measured after 1 hr incubation by microplate reader assay relative to control
T1 sequence (whole entry): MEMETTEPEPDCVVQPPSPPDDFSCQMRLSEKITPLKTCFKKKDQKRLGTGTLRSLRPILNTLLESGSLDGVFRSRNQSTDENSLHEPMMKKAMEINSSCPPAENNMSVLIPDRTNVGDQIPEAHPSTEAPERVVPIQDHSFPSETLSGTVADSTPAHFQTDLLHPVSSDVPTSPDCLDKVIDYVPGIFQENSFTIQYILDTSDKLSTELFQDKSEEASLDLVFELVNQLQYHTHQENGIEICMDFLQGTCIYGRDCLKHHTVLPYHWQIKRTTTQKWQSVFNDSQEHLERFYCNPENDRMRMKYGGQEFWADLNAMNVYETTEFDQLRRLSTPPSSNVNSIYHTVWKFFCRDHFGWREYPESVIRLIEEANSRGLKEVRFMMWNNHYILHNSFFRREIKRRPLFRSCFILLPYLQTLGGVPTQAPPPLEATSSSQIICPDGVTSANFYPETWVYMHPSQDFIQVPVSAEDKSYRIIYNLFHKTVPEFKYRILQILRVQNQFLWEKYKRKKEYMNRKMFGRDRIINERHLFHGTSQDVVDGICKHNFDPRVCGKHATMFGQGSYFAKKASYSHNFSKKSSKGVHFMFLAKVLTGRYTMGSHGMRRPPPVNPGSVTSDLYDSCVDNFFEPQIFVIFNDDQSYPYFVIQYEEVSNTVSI

[2] = target: Poly [ADP-ribose] polymerase 1 (Homo sapiens, UniProt P09874); assay: Inhibition of PARP1 (unknown origin) measured after 1 hr incubation by microplate reader assay
[3] = Clearance in ICR mouse; type: ADME; settings: in vivo
[4] = Oral bioavailability in ICR mouse; type: ADME, organism-based; settings: in vivo
[5] = Antiproliferative activity against mouse AML12 cells measured after 6 days incubation by MTT assay; type: toxicity, cell-based
[6] = Permeability across apical to basolateral side in human Caco-2 cells; type: ADME, cell-based
[7] = Permeability across basolateral to apical side in human Caco-2 cells; type: ADME, cell-based
Cytochrome P450 2C9 = Cytochrome P450 2C9 (Homo sapiens, UniProt P11712); assay: Inhibition of CYP2C9 (unknown origin); type: ADME
Cytochrome P450 2D6 = Cytochrome P450 2D6 (Homo sapiens, UniProt P10635); assay: Inhibition of CYP2D6 (unknown origin); type: ADME
CYP3A4/5 = CYP3A4/5 (Homo sapiens, UniProt P08684+P20815); assay: Inhibition of CYP3A4/5 (unknown origin); type: ADME, protein assay
CT26 [8] = assay: Antitumor activity in immunocompetent mouse CT26 cell bearing mouse model assessed as tumor growth inhibition at 100 mg/kg, IG treated twice a day measured after 14 days relative to control; type: functional; settings: CT26, po, 336 h, time 14 day, read-out: TGI
CT26 [9] = assay: Antitumor activity in immunocompetent mouse CT26 cell bearing Balb/c mouse model assessed as induction of IFN-beta mRNA expression in tumor tissue at 100 mg/kg, IG treated twice a day measured after 14 days by quantitative real-time PCR analysis; type: functional, organism-based; settings: time 14.0 day
[10] = target: T2, Protein mono-ADP-ribosyltransferase TIPARP (Homo sapiens, UniProt Q7Z3E1); assay: Inhibition of PARP7 (unknown origin) measured after 1 hr incubation by microplate reader assay
T2 sequence (Q7Z3E1 whole entry): T1 sequence (whole entry)

CT26 [11] = assay: Antitumor activity against mouse CT26 cells implanted in immunodeficient Balb/c mouse assessed as inhibition of tumor growth at 25 mg/kg, ip qod measured after 10 days relative to control; type: functional; settings: CT26, 240 h, time 10 day, read-out: TGI

Chain of Poly [ADP-ribose] polymerase 1 (P09874 whole entry): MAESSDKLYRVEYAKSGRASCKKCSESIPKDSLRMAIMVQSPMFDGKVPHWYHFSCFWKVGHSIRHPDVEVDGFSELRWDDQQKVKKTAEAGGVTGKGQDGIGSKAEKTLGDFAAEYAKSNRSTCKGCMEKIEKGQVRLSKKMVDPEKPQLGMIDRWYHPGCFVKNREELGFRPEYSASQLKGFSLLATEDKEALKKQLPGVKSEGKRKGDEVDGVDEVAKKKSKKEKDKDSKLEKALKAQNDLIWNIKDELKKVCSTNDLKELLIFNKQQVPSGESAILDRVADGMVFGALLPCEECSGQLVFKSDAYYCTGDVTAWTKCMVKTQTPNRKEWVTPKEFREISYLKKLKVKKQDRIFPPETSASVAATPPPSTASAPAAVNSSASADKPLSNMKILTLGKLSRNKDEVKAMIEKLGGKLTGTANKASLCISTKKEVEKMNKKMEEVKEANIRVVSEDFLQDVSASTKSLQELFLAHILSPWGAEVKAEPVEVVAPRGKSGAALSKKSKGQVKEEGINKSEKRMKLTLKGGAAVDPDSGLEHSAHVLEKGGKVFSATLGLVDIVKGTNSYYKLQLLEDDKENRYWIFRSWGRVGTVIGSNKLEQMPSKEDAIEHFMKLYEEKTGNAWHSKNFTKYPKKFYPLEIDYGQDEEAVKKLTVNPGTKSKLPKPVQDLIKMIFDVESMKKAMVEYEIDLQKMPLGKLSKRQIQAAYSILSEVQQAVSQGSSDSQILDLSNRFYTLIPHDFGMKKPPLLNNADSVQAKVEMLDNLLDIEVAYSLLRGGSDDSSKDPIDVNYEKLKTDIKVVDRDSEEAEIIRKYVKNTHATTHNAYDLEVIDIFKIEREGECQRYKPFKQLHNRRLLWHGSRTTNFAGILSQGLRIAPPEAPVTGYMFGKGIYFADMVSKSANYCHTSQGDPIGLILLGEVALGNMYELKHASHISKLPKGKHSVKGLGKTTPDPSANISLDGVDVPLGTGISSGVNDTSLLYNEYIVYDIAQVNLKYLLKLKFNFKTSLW
Chain of Cytochrome P450 2D6 (P10635 whole entry): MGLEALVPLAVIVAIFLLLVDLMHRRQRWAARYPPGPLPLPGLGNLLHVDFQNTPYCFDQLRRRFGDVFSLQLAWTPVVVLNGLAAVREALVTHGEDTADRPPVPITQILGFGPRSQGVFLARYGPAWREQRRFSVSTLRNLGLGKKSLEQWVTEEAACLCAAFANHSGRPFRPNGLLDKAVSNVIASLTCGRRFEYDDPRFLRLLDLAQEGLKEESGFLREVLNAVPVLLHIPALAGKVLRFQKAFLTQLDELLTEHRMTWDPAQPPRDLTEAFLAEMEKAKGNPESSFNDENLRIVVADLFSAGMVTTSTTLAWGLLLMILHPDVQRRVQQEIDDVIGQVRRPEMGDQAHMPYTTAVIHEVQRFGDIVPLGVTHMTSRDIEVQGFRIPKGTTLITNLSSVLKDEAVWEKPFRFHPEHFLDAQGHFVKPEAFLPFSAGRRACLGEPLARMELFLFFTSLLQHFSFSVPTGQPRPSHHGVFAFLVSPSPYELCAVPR
Chain of Cytochrome P450 2C9 (P11712 whole entry): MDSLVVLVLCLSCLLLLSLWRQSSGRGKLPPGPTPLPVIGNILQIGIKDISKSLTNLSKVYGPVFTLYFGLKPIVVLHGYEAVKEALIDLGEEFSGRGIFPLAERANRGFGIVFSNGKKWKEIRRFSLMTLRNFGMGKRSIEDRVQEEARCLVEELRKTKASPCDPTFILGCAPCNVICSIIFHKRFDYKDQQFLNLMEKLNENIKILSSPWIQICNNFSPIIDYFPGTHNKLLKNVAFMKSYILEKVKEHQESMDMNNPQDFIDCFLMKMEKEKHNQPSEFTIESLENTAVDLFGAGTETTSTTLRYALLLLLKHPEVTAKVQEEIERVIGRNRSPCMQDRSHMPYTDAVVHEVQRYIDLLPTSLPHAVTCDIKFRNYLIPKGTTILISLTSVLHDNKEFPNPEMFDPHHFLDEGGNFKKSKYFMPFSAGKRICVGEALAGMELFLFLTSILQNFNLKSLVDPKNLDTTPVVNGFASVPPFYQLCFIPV

Question: What does the source list for `NC(=O)c1cccc2cn(CC(=O)N3CCN(c4ccc(C(F)(F)F)cn4)CC3)nc12`?
Answer: inhibition [1]: 68.7%; IC50 [2]: > 1300 nM

Question: Which clearance [3] does the source give for `C[C@@H](COCCC(=O)N1CCN(c2ncc(C(F)(F)F)cn2)CC1)Nc1cn[nH]c(=O)c1C(F)(F)F` [ATAMPARIB] here?
Answer: Its clearance is 67 mL/min/kg.

Question: And the bioavailability [4]?
Answer: The bioavailability was 25.7%.

Question: What about the IC50 at 6 days [5] of the same compound?
Answer: The IC50 at 6 days was > 50 µM.

Question: And the Papp A→B [6]?
Answer: Its Papp A→B is 4.1 ×10⁻⁶ cm/s.

Question: And the Papp B→A [7]?
Answer: The Papp B→A was 24 ×10⁻⁶ cm/s.

Question: And the IC50 (Cytochrome P450 2C9)?
Answer: Its IC50 is > 30 µM.

Question: What about the IC50 (Cytochrome P450 2D6) of the same compound?
Answer: Its IC50 is > 30 µM.

Question: And the IC50 (CYP3A4/5)?
Answer: Its IC50 is > 30 µM.

Question: And the inhibition in vivo at 100 mg/kg (CT26 [8])?
Answer: The inhibition in vivo at 100 mg/kg was 4%.

Question: What about the Activity (CT26 [9]) of the same compound?
Answer: Its Activity is “inactive”.

Question: Which inhibition [1] does the source give for `CCC(C(=O)N1CCN(c2ncc(C(F)(F)F)cn2)CC1)n1cc2cccc(C(N)=O)c2n1` (stereo not drawn) here?
Answer: Its inhibition is 63%.

Question: Which inhibition [1] does the source give for `CC(C(=O)N1CCN(c2ncc(Br)cn2)CC1)n1cc2cccc(C(N)=O)c2n1` (stereo not drawn) here?
Answer: The inhibition was 85.6%.

Question: What about the IC50 [10] of the same compound?
Answer: The IC50 was 22.3 nM.

Question: Which inhibition in vivo at 25 mg/kg (CT26 [11]) does the source give for `O=c1[nH]cc(F)c(=O)[nH]1` [FLUOROURACIL] here?
Answer: Its inhibition in vivo at 25 mg/kg is 65%.

Question: What does the source list for `NC(=O)c1cccc2cn(C(F)C(=O)N3CCN(c4ncc(C(F)(F)F)cn4)CC3)nc12` (stereo not drawn)?
Answer: inhibition [1]: 63%; IC50 [10]: 122 nM

Question: Which inhibition [1] does the source give for `CC(C(=O)N1CCN(c2ncccn2)CC1)n1cc2cccc(C(N)=O)c2n1` (stereo not drawn) here?
Answer: The inhibition was 19.7%.

Question: Which inhibition [1] does the source give for `CC(C(=O)N1CCN(c2ncc(S(C)(=O)=O)cn2)CC1)n1cc2cccc(C(N)=O)c2n1` (stereo not drawn) here?
Answer: The inhibition was 25.6%.

Question: With `CC(C(=O)N1CCN(c2ccc3c(c2)OC(F)(F)O3)CC1)n1cc2cccc(C(N)=O)c2n1` (stereo not drawn) as the compound, how does the inhibition [1] read?
Answer: Its inhibition is 13%.

Question: For `Cc1cnc(N2CCN(C(=O)C(C)n3cc4cccc(C(N)=O)c4n3)CC2)nc1` (stereo not drawn), which inhibition [1] is on record?
Answer: The inhibition was 79.5%.

Question: What about the IC50 [10] of the same compound?
Answer: Its IC50 is 62 nM.

Question: With `NC(=O)c1cccc2cn(CC(=O)N3CCN(c4ncc(C(F)(F)F)cn4)CC3)nc12` as the compound, how does the inhibition [1] read?
Answer: Its inhibition is 89%.

Question: And the IC50 [10]?
Answer: Its IC50 is 46 nM.

Question: And the IC50 [2]?
Answer: Its IC50 is > 1300 nM.

Question: With `CC(C(=O)N1CCN(c2ccc(C(F)(F)F)cn2)CC1)n1cc2cccc(C(N)=O)c2n1` (stereo not drawn) as the compound, how does the inhibition [1] read?
Answer: The inhibition was 91.2%.

Question: What about the IC50 [10] of the same compound?
Answer: The IC50 was 20 nM.

Question: For `COc1cnc(N2CCN(C(=O)C(C)n3cc4cccc(C(N)=O)c4n3)CC2)nc1` (stereo not drawn), which inhibition [1] is on record?
Answer: Its inhibition is 65.5%.

Question: Which inhibition [1] does the source give for `NC(=O)c1cccc2cn(CCC(=O)N3CCN(c4ncc(C(F)(F)F)cn4)CC3)nc12` here?
Answer: The inhibition was 33.9%.

Question: For `NC(=O)c1cccc2cn(CC(=O)N3CCN(c4ccc5c(c4)OC(F)(F)O5)CC3)nc12`, which inhibition [1] is on record?
Answer: The inhibition was 17.5%.

Question: With `CC(C(=O)N1CCN(c2ncc(C#N)cn2)CC1)n1cc2cccc(C(N)=O)c2n1` (stereo not drawn) as the compound, how does the inhibition [1] read?
Answer: Its inhibition is 71%.

Question: Which inhibition [1] does the source give for `CC(C(=O)N1CCN(c2ncc(F)cn2)CC1)n1cc2cccc(C(N)=O)c2n1` (stereo not drawn) here?
Answer: Its inhibition is 64.5%.
